Experimental data from patent US9233978B2, “6-fused heteroaryldihydropyrimidines for the treatment and prophylaxis of hepatitis B virus infection” (Hoffmann-La Roche Inc., priority 2014, dated 2016).
In brackets after ≈: the same amount, converted by molar mass. Like-named read-outs stand apart in the source and are kept apart here.

What was measured:
[1] = Lysa solubility; type: physicochemical; settings: 0.05 M phosphate buffer (pH 6.5); for solubility thermodynamic: phosphate buffer, pH 6.5, aqueous buffer, thermodynamic from solid
Procedure, shortened: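 Duplicate samples dried from 10 mM DMSO stocks, taken up in 0.05 M phosphate buffer pH 6.5, stirred 1 h, shaken 2 h and left overnight. Filtrate and 1/10 dilution quantified by direct UV or HPLC-UV, in μg/mL; above 80% of the calculated maximum, reported as greater than that value.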

[2] = tested on: CYP3A4; experiment: Cytochrome P450 induction screening assay, mRNA induction in human cryopreserved hepatocytes; type: in vitro ADME; settings: CYP3A4 mRNA relative induction, 24 hours, test compound up to 10 μM
Protocol: Human cryopreserved hepatocytes (Life Technologies, Carlsbad, USA) were thawed and cultured in collagen I coated 96-well plates with a density of 52,000 cells/well. After attachment, medium was changed and cells were pre-cultured overnight in hepatocyte maintenance medium (HMM; Lonza, Switzerland).
Test compounds were dosed to the cells next morning at an indicated concentration (up to 10 μM) in HMM culture media containing gentamycin and a constant 0.1% DMSO. Similarly, dilutions of the positive inducer compounds omeprazole (prototypical inducer of human CYP1A2; final concentrations: 1 and 10 μM), phenobarbital (prototypical inducer of human CYP2B6; final concentrations: 100 and 1000 μM) and rifampicin (prototypical inducer of human CYP3A4; final concentrations: 1 and 10 μM) were prepared from 1000 fold DMSO stock solutions in HMM containing gentamycin. Medium change was then performed and cells were exposed for 24 hours to test compounds, positive inducer compounds, or vehicle (0.1% DMSO), respectively.
At the end of the compound exposure period, medium was removed and cells lysed using 100 μL/well MagNA Pure LC RNA isolation tissue lysis buffer (Roche Diagnostics AG, Rotkreuz, Switzerland). Plates were then sealed and frozen at −80° C. until further workup.
mRNA isolation was performed using the MagNA Pure 96 system (Roche Diagnostics AG, Rotkreuz, Switzerland) and the respective cellular RNA large volume kit (Roche Diagnostics AG, Rotkreuz, Switzerland) from thawed samples diluted 1:1 with PBS. The volume of the cell lysis and an elution volume of 100 μL were used. 20 μl of the resulting mRNA suspension was then used for reverse transcription using 20 μl of the transcript or first stand cDNA synthesis kit (Roche prime Supply, Mannheim, Germany). The resulting cDNA was diluted with 40 μl of H2O before using for qRT-PCR. qRT-PCR was performed by using the forward and the reverse primer, the corresponding UPL (all from Microsynth, Balgach, Switzerland) and the Taqman Fast advanced master mix (Applied Biosystems), on an ABI 7900 machine (Applied Biosystems).
qRT-PCR Ct-values for the respective P450s were put into relation to the Ct-value of RN18S1 (microsynth, Balgach, Switzerland) of the same sample. Doing so, a respective Δct-value was calculated. Using the average of all Δct-values for the vehicle control samples, a ΔΔct-value was calculated for each sample (ΔΔct-value(sample)=Δct-value(sample)−average of Δct-value of all vehicle controls). The fold induction of the respective sample was calculated as 2^(−ΔΔct). The individual fold induction values were then averaged per treatment condition (usually n=3 biological replicates).
Relative induction values to the respective positive inducer compound condition (10 μM omeprazole for CYP1A2; 1000 μM Phenobarbital for CYP2B6; 10 μM rifampicin for CYP3A4) were then calculated from the fold induction values as follows: Relative induction (%)=100×(T−V)/(P−V)

[3] = Human microsomal metabolic stability; type: in vitro ADME; settings: human microsomes 0.5 mg/mL, 1 μM test compound, NADPH, 37° C., pH 7.4, 0-30 minutes
Procedure, shortened: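 1 μM compound with 0.5 mg/mL human liver microsomal protein in 100 mM phosphate pH 7.4 at 37° C, started with 1 mM NADPH or a NADPH-regenerating system. Sampled at 0–30 min, quenched in cold methanol with tolbutamide internal standard; remaining parent quantified by LC-MS/MS.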

[4] = Cytotoxicity in HepDE19 cells (CCK-8) and selectivity index; type: cell-based; settings: human, HepDE19 cells; CCK-8 cell viability; five days after treatment
Procedure, shortened: (§1)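 HepDE19 cells (DMEM-F12, 10% FBS) were treated with compound for five days, then given CCK-8 for 2 h at 37 °C and read at OD450 and OD630. CC50 is the concentration killing 50% of host cells. Selectivity index is CC50/EC50.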

[5] = tested on: HepDE19 cells; experiment: as above; type: cell-based; settings: CC50 (HepDE19) value / EC50 (HepG2.2.15) value
Procedure, shortened: as §1

[6] = tested on: HBV; experiment: Anti-HBV activity in vitro, HepG2.2.15 cells, extracellular HBV DNA by qPCR; type: cell-based; settings: HepG2.2.15 cells, HBV replication inhibited by 50%, extracellular HBV DNA by qPCR, five days after compound treatment, read-out: EC50
Procedure, shortened: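 Extracellular HBV DNA in culture supernatant was measured by qPCR after nucleic acid extraction. The supernatant came from constitutively replicating HepG2.2.15 cells exposed for five days to half-log-diluted compounds, with DMSO at 0.5% final. Cells had been plated overnight at 37 °C beforehand.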

[7] = Hepatitis B virus, HepG2.2.15, 120 h

## COC(=O)C1=C(CN2CCN3C(=O)N(C(C)(C)C)C[C@@H]3[C@H]2C(=O)O)NC(c2nccs2)=N[C@H]1c1ccc(F)c(F)c1C (single isomer, unassigned) [Example 88B]
[1]
  solubility thermodynamic: > 745 µg/mL
[2]
  % of Positive control (10 μM Rifampicin): 3.7%
[3]
  Human Microsomal Clearance: 4.5 mL/min/kg
[4]
  CC50 at 5 days: > 100000 nM
[5]
  Selectivity index (CC50/EC50): >20000
[6]; [7]
  EC50: 5 nM

## CCOC(=O)C1=C(CN2CCN3C(=O)N(C)C[C@H]3[C@@H]2C(=O)O)NC(c2nccs2)=N[C@H]1c1cccc(F)c1Cl (single isomer, unassigned) [Example 91B]
[1]
  solubility thermodynamic: > 705 µg/mL
[2]
  % of Positive control (10 μM Rifampicin): 1.7%
[3]
  Human Microsomal Clearance: 5.8 mL/min/kg
[4]
  CC50 at 5 days: > 100000 nM
[5]
  Selectivity index (CC50/EC50): >50000
[6]; [7]
  EC50: 2 nM

## CCOC(=O)C1=C(CN2CCN3C(=O)N(CC(C)(C)C(=O)O)C[C@@H]3C2)NC(c2nccs2)=N[C@H]1c1cccc(F)c1Cl [Example 19, 3-[(8aS)-7-[[(4R)-4-(2-chloro-3-fluoro-phenyl)-5-ethoxycarbonyl-2-thiazol-2-yl-1,4-dihydropyrimidin-6-yl]methyl]-3-oxo-5,6,8,8a-tetrahydro-1H-imidazo[1,5-a]pyrazin-2-yl]-2,2-dimethyl-propanoic acid]
[1]
  solubility thermodynamic: > 727 µg/mL
[2]
  % of Positive control (10 μM Rifampicin): 1%
[3]
  Human Microsomal Clearance: 0.4 mL/min/kg
[4]
  CC50 at 5 days: > 100000 nM
[5]
  Selectivity index (CC50/EC50): >30303
[6]; [7]
  EC50: 3 nM

## CCOC(=O)C1=C(CN2CCN3C(=O)N(CC(C)C(=O)O)C[C@@H]3C2)NC(c2nccs2)=N[C@H]1c1cccc(F)c1Cl (stereo partly drawn) [Example 21, 3-[(8aS)-7-[[(4R)-4-(2-chloro-3-fluoro-phenyl)-5-ethoxycarbonyl-2-thiazol-2-yl-1,4-dihydropyrimidin-6-yl]methyl]-3-oxo-5,6,8,8a-tetrahydro-1H-imidazo[1,5-a]pyrazin-2-yl]-2-methyl-propanoic acid]
[1]
  solubility thermodynamic: > 786 µg/mL
[2]
  % of Positive control (10 μM Rifampicin): 2.4%
[3]
  Human Microsomal Clearance: 2.7 mL/min/kg
[4]
  CC50 at 5 days: > 100000 nM
[5]
  Selectivity index (CC50/EC50): >6211
[6]; [7]
  EC50: 16 nM

## CCOC(=O)C1=C(CN2CCN3C(=O)N(C(C)(C)CC(=O)O)C[C@@H]3C2)NC(c2nccs2)=N[C@H]1c1cccc(F)c1Cl [Example 34, 3-[(8aS)-7-[[(4R)-4-(2-chloro-3-fluoro-phenyl)-5-ethoxycarbonyl-2-thiazol-2-yl-1,4-dihydropyrimidin-6-yl]methyl]-3-oxo-5,6,8,8a-tetrahydro-1H-imidazo[1,5-a]pyrazin-2-yl]-3-methyl-butanoic acid]
[1]
  solubility thermodynamic: 326 µg/mL (≈ 527 µM)
[2]
  % of Positive control (10 μM Rifampicin): 0.2%
[3]
  Human Microsomal Clearance: 1.8 mL/min/kg
[4]
  CC50 at 5 days: 81000 nM
[5]
  Selectivity index (CC50/EC50): 10655
[6]; [7]
  EC50: 8 nM

## CCOC(=O)C1=C(CN2CCN3C(=O)N(CC4(C(=O)O)CC4)C[C@@H]3C2)NC(c2nccs2)=N[C@H]1c1cccc(F)c1Cl [Example 36, 1-[[(8aS)-7-[[(4R)-4-(2-chloro-3-fluoro-phenyl)-5-ethoxycarbonyl-2-thiazol-2-yl-1,4-dihydropyrimidin-6-yl]methyl]-3-oxo-5,6,8,8a-tetrahydro-1H-imidazo[1,5-a]pyrazin-2-yl]methyl]cyclopropanecarboxylic acid]
[1]
  solubility thermodynamic: 485 µg/mL (≈ 786 µM)
[2]
  % of Positive control (10 μM Rifampicin): 6%
[3]
  Human Microsomal Clearance: 4.4 mL/min/kg
[4]
  CC50 at 5 days: > 100000 nM
[5]
  Selectivity index (CC50/EC50): >18181
[6]; [7]
  EC50: 6 nM

## COC(=O)C1=C(CN2CCN3C(=O)N(CC4(C(=O)O)CC4)C[C@@H]3C2)NC(c2nccs2)=N[C@H]1c1ccc(F)c(F)c1C [Example 38, 1-[[(8aS)-7-[[(4S)-4-(3,4-difluoro-2-methyl-phenyl)-5-methoxycarbonyl-2-thiazol-2-yl-1,4-dihydropyrimidin-6-yl]methyl]-3-oxo-5,6,8,8a-tetrahydro-1H-imidazo[1,5-a]pyrazin-2-yl]methyl]cyclopropanecarboxylic acid]
[1]
  solubility thermodynamic: 627 µg/mL (≈ 1040 µM)
[2]
  % of Positive control (10 μM Rifampicin): 0.2%
[3]
  Human Microsomal Clearance: 2.0 mL/min/kg
[4]
  CC50 at 5 days: 100000 nM
[5]
  Selectivity index (CC50/EC50): 21276
[6]; [7]
  EC50: 5 nM

## COC(=O)C1=C(CN2CCN3C(=O)N(CC(C)(C)C(=O)O)C[C@@H]3C2)NC(c2nccs2)=N[C@H]1c1ccc(F)cc1Cl [Example 42, 3-[(8aS)-7-[[(4R)-4-(2-chloro-4-fluoro-phenyl)-5-methoxycarbonyl-2-thiazol-2-yl-1,4-dihydropyrimidin-6-yl]methyl]-3-oxo-5,6,8,8a-tetrahydro-1H-imidazo[1,5-a]pyrazin-2-yl]-2,2-dimethyl-propanoic acid]
[1]
  solubility thermodynamic: > 785 µg/mL
[2]
  % of Positive control (10 μM Rifampicin): 0.6%
[3]
  Human Microsomal Clearance: 2.0 mL/min/kg
[4]
  CC50 at 5 days: > 100000 nM
[5]
  Selectivity index (CC50/EC50): >15625
[6]; [7]
  EC50: 6 nM

## COC(=O)C1=C(CN2CCN3C(=O)N(CCC(C)(C)C(=O)O)C[C@@H]3C2)NC(c2nccs2)=N[C@H]1c1ccc(F)cc1Cl [Example 54, 4-[(8aS)-7-[[(4R)-4-(2-chloro-4-fluoro-phenyl)-5-methoxycarbonyl-2-thiazol-2-yl-1,4-dihydropyrimidin-6-yl]methyl]-3-oxo-5,6,8,8a-tetrahydro-1H-imidazo[1,5-a]pyrazin-2-yl]-2,2-dimethyl-butanoic acid]
[1]
  solubility thermodynamic: 387 µg/mL (≈ 625 µM)
[2]
  % of Positive control (10 μM Rifampicin): 0%
[3]
  Human Microsomal Clearance: 4.6 mL/min/kg
[4]
  CC50 at 5 days: > 100000 nM
[5]
  Selectivity index (CC50/EC50): >12500
[6]; [7]
  EC50: 8 nM

## COC(=O)C1=C(CN2CCN3C(=O)N(CC4(C(=O)O)CCC4)C[C@@H]3C2)NC(c2nccs2)=N[C@H]1c1ccc(F)cc1Cl [Example 59, (R)-6-[(S)-2-(1-Carboxy-cyclobutylmethyl)-3-oxo-hexahydro-imidazo[1,5-a]pyrazin-7-ylmethyl]-4-(2-chloro-4-fluoro-phenyl)-2-thiazol-2-yl-1,4-dihydro-pyrimidine-5-carboxylic acid methyl ester]
[1]
  solubility thermodynamic: > 685 µg/mL
[2]
  % of Positive control (10 μM Rifampicin): 2.2%
[3]
  Human Microsomal Clearance: 2.3 mL/min/kg
[4]
  CC50 at 5 days: > 100000 nM
[5]
  Selectivity index (CC50/EC50): >9091
[6]; [7]
  EC50: 11 nM

## COC(=O)C1=C(CN2CCN3C(=O)N(C4CCC(C(=O)O)CC4)C[C@@H]3C2)NC(c2nccs2)=N[C@H]1c1ccc(F)cc1Cl (stereo partly drawn) [Example 73, 4-[(8aS)-7-[[(4R)-4-(2-chloro-4-fluoro-phenyl)-5-methoxycarbonyl-2-thiazol-2-yl-1,4-dihydropyrimidin-6-yl]methyl]-3-oxo-5,6,8,8a-tetrahydro-1H-imidazo[1,5-a]pyrazin-2-yl]cyclohexanecarboxylic acid]
[1]
  Lysa: 564 µg/mL
[2]
  % of Positive control (10 μM Rifampicin): 0%
[3]
  Human Microsomal Clearance: 8.1 mL/min/kg
[4]
  CC50 at 5 days: 70000 nM
[5]
  Selectivity index (CC50/EC50): 7778
[6]
  EC50: 9 nM
